Laboratory results from patent US20210107874A1, “PHARMACEUTICAL FORMULATION OF CROTONYLAMINOPYRIDINE SALT” (priority 2017, published 2021).
Converted amounts (≈) assume the structure as drawn. Like-named read-outs stand apart in the source and are kept apart here.

Assays:
Type in all cases: physicochemical
[1] = Quantitative determination of solubility of compound 5 (UPLC); settings: 25 °C, aqueous buffer, thermodynamic from solid
Description: Compound 5 (120 mg) was weighed into shell vials and combined with acid (600 μl of a 350 mM solution of the respective acid in water).

[2] = Visual solubility test of compound 5 in aqueous acid solution
Description: A visual solubility test (100 μL) at a series of target concentrations of 50, 100 or 200 mg/mL of compound 5 in aqueous acid solution was performed.
In a 96 well plate (400-600 μL), compound 5 was dispensed (5, 10, or 20 mg per well), acid was added (100 μl of a 350 mM solution in water to each well) and the mixtures were equilibrated at 25° C. with stirring. Solubility was checked by visual inspection after 30 min and after one day.

[3] = Formulation with 10% compound 5: stability of clear solution; settings: 10% formulation (~100 mg/ml)
[4] = Acetic Acid 350 mM in water, 25° C.
[5] = Ethanesulfonic Acid 350 mM in water
[6] = Glucuronic Acid 350 mM in water
[7] = Glutamic Acid 350 mM in water, 25° C.
[8] = Methanesulfonic Acid 350 mM in water
[9] = Methanesulfonic Acid 350 mM in water, 25° C.
[10] = Nicotinic Acid 350 mM in water, 25° C.
[11] = Oxoglutaric Acid 350 mM in water
[12] = lsethionic Acid 350 mM in water
[13] = lsethionic Acid 350 mM in water, 25° C.

solubility at 1 day ([1]; aqueous acid solution (350 mM citric acid in water), Citric acid 350 mM in water, read-out: Solubility T = 1 Day): 160 mg/mL (≈ 559 mM)
solubility at 1 day ([1]; aqueous acid solution (350 mM citric acid in water), Citric acid 350 mM in water, read-out: Solubility T = 1 Day Average): 149 mg/mL (≈ 523 mM)
solubility at 3 days ([1]; aqueous acid solution (350 mM citric acid in water), Citric acid 350 mM in water, read-out: Solubility T = 3 Days): 153 mg/mL (≈ 536 mM)
solubility at 3 days ([1]; aqueous acid solution (350 mM citric acid in water), Citric acid 350 mM in water, read-out: Solubility T = 3 Days Average): 151 mg/mL (≈ 529 mM)
solubility at 1 day ([1]; aqueous acid solution (350 mM ethanesulfonic acid in water), Ethanesulfonic acid 350 mM in water, read-out: Solubility T = 1 Day): 155 mg/mL (≈ 543 mM)
solubility at 1 day ([1]; aqueous acid solution (350 mM ethanesulfonic acid in water), Ethanesulfonic acid 350 mM in water, read-out: Solubility T = 1 Day Average): 145 mg/mL (≈ 507 mM)
solubility at 3 days ([1]; aqueous acid solution (350 mM ethanesulfonic acid in water), Ethanesulfonic acid 350 mM in water, read-out: Solubility T = 3 Days): 167 mg/mL (≈ 587 mM)
solubility at 3 days ([1]; aqueous acid solution (350 mM ethanesulfonic acid in water), Ethanesulfonic acid 350 mM in water, read-out: Solubility T = 3 Days Average): 165 mg/mL (≈ 578 mM)
solubility at 1 day ([1]; aqueous acid solution (350 mM fumaric acid in water), Fumaric acid 350 mM in water, read-out: Solubility T = 1 Day): 152 mg/mL (≈ 531 mM)
solubility at 1 day ([1]; aqueous acid solution (350 mM fumaric acid in water), Fumaric acid 350 mM in water, read-out: Solubility T = 1 Day Average): 149 mg/mL (≈ 522 mM)
solubility at 3 days ([1]; aqueous acid solution (350 mM fumaric acid in water), Fumaric acid 350 mM in water, read-out: Solubility T = 3 Days): 140 mg/mL (≈ 490 mM)
solubility at 3 days ([1]; aqueous acid solution (350 mM fumaric acid in water), Fumaric acid 350 mM in water, read-out: Solubility T = 3 Days Average): 153 mg/mL (≈ 535 mM)
solubility at 1 day ([1]; aqueous acid solution (350 mM malic acid in water), Malic acid 350 mM in water, read-out: Solubility T = 1 Day): 129 mg/mL (≈ 451 mM)
solubility at 1 day ([1]; aqueous acid solution (350 mM malic acid in water), Malic acid 350 mM in water, read-out: Solubility T = 1 Day Average): 122 mg/mL (≈ 427 mM)
solubility at 3 days ([1]; aqueous acid solution (350 mM malic acid in water), Malic acid 350 mM in water, read-out: Solubility T = 3 Days): 117 mg/mL (≈ 409 mM)
solubility at 3 days ([1]; aqueous acid solution (350 mM malic acid in water), Malic acid 350 mM in water, read-out: Solubility T = 3 Days Average): 116 mg/mL (≈ 408 mM)
solubility at 1 day ([1]; aqueous acid solution (350 mM oxalic acid in water), Oxalic acid 350 mM in water, read-out: Solubility T = 1 Day): 149 mg/mL (≈ 523 mM)
solubility at 1 day ([1]; aqueous acid solution (350 mM oxalic acid in water), Oxalic acid 350 mM in water, read-out: Solubility T = 1 Day Average): 142 mg/mL (≈ 498 mM)
solubility at 3 days ([1]; aqueous acid solution (350 mM oxalic acid in water), Oxalic acid 350 mM in water, read-out: Solubility T = 3 Days): 155 mg/mL (≈ 544 mM)
solubility at 3 days ([1]; aqueous acid solution (350 mM oxalic acid in water), Oxalic acid 350 mM in water, read-out: Solubility T = 3 Days Average): 155 mg/mL (≈ 544 mM)
solubility at 1 day ([1]; aqueous acid solution (350 mM oxoglutaric acid in water), Oxoglutaric acid 350 mM in water, read-out: Solubility T = 1 Day): 128 mg/mL (≈ 447 mM)
solubility at 1 day ([1]; aqueous acid solution (350 mM oxoglutaric acid in water), Oxoglutaric acid 350 mM in water, read-out: Solubility T = 1 Day Average): 129 mg/mL (≈ 453 mM)
solubility at 3 days ([1]; aqueous acid solution (350 mM oxoglutaric acid in water), Oxoglutaric acid 350 mM in water, read-out: Solubility T = 3 Days): 135 mg/mL (≈ 472 mM)
solubility at 3 days ([1]; aqueous acid solution (350 mM oxoglutaric acid in water), Oxoglutaric acid 350 mM in water, read-out: Solubility T = 3 Days Average): 134 mg/mL (≈ 468 mM)
solubility at 1 day ([1]; aqueous acid solution (350 mM tartaric acid in water), Tartaric acid 350 mM in water, read-out: Solubility T = 1 Day): 117 mg/mL (≈ 410 mM)
solubility at 1 day ([1]; aqueous acid solution (350 mM tartaric acid in water), Tartaric acid 350 mM in water, read-out: Solubility T = 1 Day Average): 137 mg/mL (≈ 481 mM)
solubility at 3 days ([1]; aqueous acid solution (350 mM tartaric acid in water), Tartaric acid 350 mM in water, read-out: Solubility T = 3 Days): 162 mg/mL (≈ 567 mM)
solubility at 3 days ([1]; aqueous acid solution (350 mM tartaric acid in water), Tartaric acid 350 mM in water, read-out: Solubility T = 3 Days Average): 163 mg/mL (≈ 571 mM)
pH for 50 mg/mL ([2]; Acetic Acid 350 mM in water): 5.09
pH for 100 mg/mL ([2]; Acetic Acid 350 mM in water): 5.02
pH for 200 mg/mL ([2]; Acetic Acid 350 mM in water): 5.06
Range at 1 Day [2, 4]: <58 mg/mL
Range at 30 mins. [2, 4]: <58 mg/mL
pH for 50 mg/mL ([2]; Benzoic Acid 350 mM in water): 4.94
pH for 100 mg/mL ([2]; Benzoic Acid 350 mM in water): 5.23
pH for 200 mg/mL ([2]; Benzoic Acid 350 mM in water): 5.20
pH for 50 mg/mL ([2]; Citric Acid 350 mM in water): 3.36
pH for 100 mg/mL ([2]; Citric Acid 350 mM in water): 4.06
pH for 200 mg/mL ([2]; Citric Acid 350 mM in water): 4.84
pH for 50 mg/mL [2, 5]: 0.96
pH for 100 mg/mL [2, 5]: 1.17
pH for 200 mg/mL [2, 5]: 4.99
pH for 50 mg/mL ([2]; Fumaric Acid 350 mM in water): 3.59
pH for 100 mg/mL ([2]; Fumaric Acid 350 mM in water): 3.89
pH for 200 mg/mL ([2]; Fumaric Acid 350 mM in water): 4.86
pH for 50 mg/mL [2, 6]: 3.60
pH for 100 mg/mL [2, 6]: 4.86
pH for 200 mg/mL [2, 6]: 4.80
pH for 50 mg/mL ([2]; Glutamic Acid 350 mM in water): 5.11
pH for 100 mg/mL ([2]; Glutamic Acid 350 mM in water): 5.05
pH for 200 mg/mL ([2]; Glutamic Acid 350 mM in water): 5.14
Range at 1 Day [2, 7]: <53 mg/mL
Range at 30 mins. [2, 7]: <53 mg/mL
pH for 50 mg/mL ([2]; Lactic Acid 350 mM in water): 4.50
pH for 100 mg/mL ([2]; Lactic Acid 350 mM in water): 4.88
pH for 200 mg/mL ([2]; Lactic Acid 350 mM in water): 4.94
pH for 50 mg/mL ([2]; Malic Acid 350 mM in water): 3.68
pH for 100 mg/mL ([2]; Malic Acid 350 mM in water): 4.45
pH for 200 mg/mL ([2]; Malic Acid 350 mM in water): 4.78
pH for 50 mg/mL [2, 8]: 7.60
pH for 100 mg/mL [2, 8]: 7.61
pH for 200 mg/mL [2, 8]: 7.31
Range at 1 Day [2, 9]: <52 mg/mL
Range at 30 mins. [2, 9]: <52 mg/mL
pH for 50 mg/mL ([2]; Nicotinic Acid 350 mM in water): 5,25
pH for 100 mg/mL ([2]; Nicotinic Acid 350 mM in water): 5.15
pH for 200 mg/mL ([2]; Nicotinic Acid 350 mM in water): 5.16
Range at 1 Day [2, 10]: <74 mg/mL
Range at 30 mins. [2, 10]: <74 mg/mL
pH for 50 mg/mL ([2]; Oxalic Acid 350 mM in water): 1.81
pH for 100 mg/mL ([2]; Oxalic Acid 350 mM in water): 3.27
pH for 200 mg/mL ([2]; Oxalic Acid 350 mM in water): 4.81
pH for 50 mg/mL [2, 11]: 2.66
pH for 100 mg/mL [2, 11]: 4.17
pH for 200 mg/mL [2, 11]: 4.89
pH for 50 mg/mL ([2]; Succinic Acid 350 mM in water): 4.57
pH for 100 mg/mL ([2]; Succinic Acid 350 mM in water): 5.01
pH for 200 mg/mL ([2]; Succinic Acid 350 mM in water): 4.99
pH for 50 mg/mL ([2]; Tartaric Acid 350 mM in water): 2.92
pH for 100 mg/mL ([2]; Tartaric Acid 350 mM in water): 3.71
pH for 200 mg/mL ([2]; Tartaric Acid 350 mM in water): 4.70
solubility at 30 min ([2]; aqueous acid solution, aqueous buffer, thermodynamic from solid, Benzoic Acid 350 mM in water, 25° C., read-out: Range at 30 mins.): < 49 mg/mL
pH for 50 mg/mL [2, 12]: 7.83
pH for 100 mg/mL [2, 12]: 7.85
pH for 200 mg/mL [2, 12]: 7.93
Range at 1 Day [2, 13]: <52 mg/mL
Range at 30 mins. [2, 13]: <52 mg/mL
solubility (in words) ([2]; with nicotinic acid, methanesulfonic acid, isethionic acid, benzoic acid, acetic acid and glutamic acid): poor solubility
solubility (in words) ([2]; with tartaric acid, fumaric acid, citric acid, malic acid, oxalic acid, oxoglutaric acid and ethanesulfonic acid): good solubility
stability (remains clear solution) ([3]; pH of 4.4, equimolar Citric acid): 3 months
stability (remains clear solution) ([3]; pH of 4.4, equimolar Malic acid): 3 months
stability (remains clear solution) ([3]; pH of 4.4, equimolar Tartaric acid): 3 months
Compound: COc1cc(NCCNC(=O)/C=C/C(C)(F)F)ccn1 [Compound 5]
